Source: patent publication US12115224B2, “Polypeptide conjugates for intracellular delivery of stapled peptides” (Ohio State Innovation Foundation, priority 2017, dated 2024)
“And” between values parts separate entries of the source, which are not always exact repeats. Equal values may be shown once. Values belong to the molecule of their own block, whether it stands above or below them. Numbered stars: 1 amine (or outer) side, 2 acyl side, 3 side chain; on linkers, the order of the positions; unused ones are H or OH. Bridge positions count the residues as written; N and C are the ends. Square brackets hold non-standard residues; d marks the D form. Peptide text beside a SMILES is read from it. I, II: the chains in the order shown. * marks the point of attachment. X2 = NC(=O)[C@H](CCCCNC(=O)c1cc(C[*:1])cc(C[*:2])c1)NC(=O)COCCOCCN[*:3]; X1 = O=C1OC2(c3ccc(C(=O)*)cc31)c1ccc3cc(O)ccc3c1Oc1c2ccc2cc(O)ccc12; X3 = NC(=O)[C@H](CCCCNC(=O)CON=C(C[*:1])C[*:2])NC(=O)COCCOCCN[*:3]; 2Nal = N[C@@H](Cc1ccc2ccccc2c1)C(=O)O; mXylylene = c1cc(C[*:1])cc(C[*:2])c1; NF = 5(6)-carboxynaphthofluorescein; hCys = N[C@@H](CCS)C(=O)O; K(NF) = not defined here; AEEA = NCCOCCOCC(=O)O; βAla = NCCC(=O)O

What was measured:
[1] = target: T1, MDM2 (Homo sapiens, UniProt Q00987); assay: Direct binding of FITC-labeled peptides to MDM2 (KD); conditions: relative to the parent peptide
[2] = test system: HeLa cells; assay: Cytosolic entry efficiency of NF-labeled peptides by flow cytometry; conditions: NF-labeled peptide 5 μM, 2 h, 37° C., 10% FBS; relative to CPP9 (100%)
Experimental: Flow Cytometry. HeLa cells were seeded in 12-well plates at 1.5×10^5 cells per well for 24 h. The next day, naphthofluorescein-labelled peptide (5 μM) was added to the cells in DMEM medium supplemented with 10% fetal bovine serum (FBS) and 1% penicillin/streptomycin and the cells were incubated at 37° C. for 2 h in the presence of 5% CO2. The medium containing the peptide was removed and the cells were washed with DPBS twice. […] Data were analyzed using the Flowjo software (Tree Star).

[3] = test system: HCT116 p53+/+; assay: MTT viability assay, HCT116 WT p53; assay type: cell-based, human; conditions: 0-12.5 μM, 48 h, 10% FBS
Experimental: Peptides 4 and 5 were tested for anticancer activity against human colon carcinoma cell lines harboring WT (HCT116 p53+/+) and mutant p53 genes (HCT116 p53−/−) using the MTT viability assay. […] See Vassilev, L. T., et al., Science, 303, 844-848 (2004).
MTT Assay. HCT116 p53 wild type and HCT116 p53^−/− cells were seeded in 96-well plate with 3×10^3 cells per well, and allowed to grow overnight. Different concentrations of peptides (0-12.5 μM) were added to the cells in McCoy's 5A medium supplemented with 10% FBS and 1% penicillin/streptomycin and incubated at 37° C. for 48 h in the presence of 5% CO2. After that, 10 μL of an MTT stock solution (5 mg/mL) was added into each well and the plate was incubated at 37° C. for 4 h. 100 μL of SDS-HCl solubilizing solution was added and the plate was incubated at 37° C. overnight. The absorbance of the formazan product formed was measured at 570 nm on a Tecan microtiter plate reader.

[4] = target: T1, MDM2; assay: Fluorescence anisotropy (FA)-based competition with FITC-labeled peptide 1 for binding to MDM2; conditions: unlabeled peptides 4 and 5
Description: Expression and Purification of GST-MDM2.

Molecule: CC(=O)N[C@@H](CCC(=O)O)C(=O)N[C@H](C(=O)N[C@@H](Cc1ccccc1)C(=O)N[C@H]1CSCc2cc(cc(C(=O)NCCCC[C@H](NC(=O)COCCOCCNC(=O)CC[C@@H]3NC(=O)[C@@H](CCCNC(=N)N)NC(=O)[C@H](CCCNC(=N)N)NC(=O)[C@@H](CCCNC(=N)N)NC(=O)[C@H](CCCNC(=N)N)NC(=O)[C@H](Cc4ccc5ccccc5c4)NC(=O)[C@@H](Cc4ccccc4)NC3=O)C(N)=O)c2)CSC[C@@H](C(=O)N[C@@H](CCC(N)=O)C(=O)N[C@@H](CC(C)C)C(=O)N[C@H](C(=O)N[C@@H](CO)C(=O)NCCOCCOCC(=O)N[C@@H](CCCCNC(=O)c2ccc3c(c2)C(=O)OC32c3ccc4cc(O)ccc4c3Oc3c2ccc2cc(O)ccc32)C(N)=O)[C@@H](C)O)NC(=O)[C@H](Cc2c[nH]c3ccccc23)NC(=O)[C@H](Cc2ccc(O)cc2)NC(=O)[C@H](Cc2c[nH]cn2)NC1=O)[C@@H](C)O [Peptide 11] (I: Ac-ETFCHYWCQLTS[AEEA]K(X1)-NH2 / II: cyclo([2Nal]R[dR]R[dR]E[dF]); linker I:4-I:8-II:6 via X2)
fold decrease of MDM2 binding affinity [1]: 6 fold

Molecule: NF-βA-ENPECILDCHVQRVM-NH2 [16] ({NF-βAla}-ENPECILDCHVQRVM-NH2; bridge 5-9; not fully specified (bridges)) [Peptide 16]
Cellular Uptake (MFI^NF, %) [2]: 2.5% and 2.5 ± 0.5%

Molecule: NF-βA-RKFCRLFC-NH2 [14] ({NF-βAla}-RKFCRLFC-NH2; bridge 4-8; not fully specified (bridges)) [Peptide 14]
Cellular Uptake (MFI^NF, %) [2]: 47% and 47 ± 9%

Molecule: NF-βA-NPECILDCHVQRVM-NH2 [18] ({NF-βAla}-NPECILDCHVQRVM-NH2; bridge 4-8; not fully specified (bridges)) [Peptide 18]
Cellular Uptake (MFI^NF, %) [2]: 8.9% and 8.9 ± 2.9%

Molecule: COc1ccc(C2=N[C@@H](c3ccc(Cl)cc3)[C@@H](c3ccc(Cl)cc3)N2C(=O)N2CCNC(=O)C2)c(OC(C)C)c1 [Nutlin-3, reference compound]
effect on viability of WT p53 cells [3]: selectively killed the WT p53 cells in a dose-dependent manner

Molecule: CC(=O)N[C@@H](CC(C)C)C(=O)N[C@H](C(=O)N[C@@H](Cc1ccccc1)C(=O)N[C@H]1CCSCC(=NOCC(=O)NCCCC[C@H](NC(=O)COCCOCCNC(=O)CC[C@@H]2NC(=O)[C@@H](CCCNC(=N)N)NC(=O)[C@H](CCCNC(=N)N)NC(=O)[C@@H](CCCNC(=N)N)NC(=O)[C@H](CCCNC(=N)N)NC(=O)[C@H](Cc3ccc4ccccc4c3)NC(=O)[C@@H](Cc3ccccc3)NC2=O)C(N)=O)CSCC[C@@H](C(=O)N[C@@H](CCC(N)=O)C(=O)N[C@@H](CC(C)C)C(=O)N[C@H](C(=O)N[C@@H](CO)C(=O)NCCOCCOCC(=O)N[C@@H](CCCCN)C(N)=O)[C@@H](C)O)NC(=O)[C@H](Cc2c[nH]c3ccccc23)NC(=O)[C@H](Cc2ccc(O)cc2)NC(=O)[C@H](Cc2c[nH]cn2)NC1=O)[C@@H](C)O [Peptide 4] (I: Ac-LTF[hCys]HYW[hCys]QLTS[AEEA]K-NH2 / II: cyclo([2Nal]R[dR]R[dR]E[dF]); linker I:4-I:8-II:6 via X3)
IC50 [4]: 220 nM

Molecule: Ac-ETFCHYWCQLTS-miniPEG-K(NF)-NH2 (Ac-ETFCHYWCQLTS-{miniPEG-K(NF)-NH2}; linker 4-8 via xylene; reading uncertain; also: printed as Ac-ETFCHYWCQLTS-miniPEG-K(NF)-NH2) [Peptide 10]
Cellular Uptake (MFI^NF, %) [2]: 2.8% and 2.8 ± 0.1%

Continued, values first:

fold improvement of MDM2 binding affinity [1]: 5 fold
Molecule: CC(=O)N[C@@H](CC(C)C)C(=O)N[C@H](C(=O)N[C@@H](Cc1ccccc1)C(=O)N[C@H]1CCSCc2cccc(c2)CSCC[C@@H](C(=O)N[C@@H](CCC(N)=O)C(=O)N[C@@H](CC(C)C)C(=O)N[C@H](C(=O)N[C@@H](CO)C(=O)NCCOCCOCC(=O)N[C@@H](CCCCNC(=O)c2ccc3c(c2)C(=O)OC32c3ccc4cc(O)ccc4c3Oc3c2ccc2cc(O)ccc32)C(N)=O)[C@@H](C)O)NC(=O)[C@H](Cc2c[nH]c3ccccc23)NC(=O)[C@H](Cc2ccc(O)cc2)NC(=O)[C@H](Cc2c[nH]cn2)NC1=O)[C@@H](C)O [Peptide 8, Ac-LTFhCHYWhCQLTS-miniPEG-K(NF)-NH2] (Ac-LTF[hCys]HYW[hCys]QLTS[AEEA]K(X1)-NH2; linker 4-8 via mXylylene)

fold decrease of MDM2 binding affinity [1]: ~8 fold
Molecule: CC(=O)N[C@@H](CC(C)C)C(=O)N[C@H](C(=O)N[C@@H](Cc1ccccc1)C(=O)N[C@H]1CCSCc2cc(cc(C(=O)NCCCC[C@H](NC(=O)COCCOCCNC(=O)CC[C@@H]3NC(=O)[C@@H](CCCNC(=N)N)NC(=O)[C@H](CCCNC(=N)N)NC(=O)[C@@H](CCCNC(=N)N)NC(=O)[C@H](CCCNC(=N)N)NC(=O)[C@H](Cc4ccc5ccccc5c4)NC(=O)[C@@H](Cc4ccccc4)NC3=O)C(N)=O)c2)CSCC[C@@H](C(=O)N[C@@H](CCC(N)=O)C(=O)N[C@@H](CC(C)C)C(=O)N[C@H](C(=O)N[C@@H](CO)C(=O)NCCOCCOCC(=O)N[C@@H](CCCCNC(=O)c2ccc3c(c2)C(=O)OC32c3ccc4cc(O)ccc4c3Oc3c2ccc2cc(O)ccc32)C(N)=O)[C@@H](C)O)NC(=O)[C@H](Cc2c[nH]c3ccccc23)NC(=O)[C@H](Cc2ccc(O)cc2)NC(=O)[C@H](Cc2c[nH]cn2)NC1=O)[C@@H](C)O [Peptide 9, Ac-LTFhCHYWhCQLTS-miniPEG-K(NF)-NH2] (I: Ac-LTF[hCys]HYW[hCys]QLTS[AEEA]K(X1)-NH2 / II: cyclo(R[dR]E[dF][2Nal]R[dR]); linker I:4-I:8-II:3 via X2)

fold decrease of MDM2 binding affinity [1]: ~2.5 fold
Molecule: CC(=O)N[C@@H](CC(C)C)C(=O)N[C@H](C(=O)N[C@@H](Cc1ccccc1)C(=O)N[C@H]1CSCc2cccc(c2)CSC[C@@H](C(=O)N[C@@H](CCC(N)=O)C(=O)N[C@@H](CC(C)C)C(=O)N[C@H](C(=O)N[C@@H](CO)C(=O)NCCOCCOCC(=O)N[C@@H](CCCCNC(=O)c2ccc3c(c2)C(=O)OC32c3ccc4cc(O)ccc4c3Oc3c2ccc2cc(O)ccc32)C(N)=O)[C@@H](C)O)NC(=O)[C@H](Cc2c[nH]c3ccccc23)NC(=O)[C@H](Cc2ccc(O)cc2)NC(=O)[C@H](Cc2c[nH]cn2)NC1=O)[C@@H](C)O [Peptide 6] (Ac-LTFCHYWCQLTS[AEEA]K(X1)-NH2; linker 4-8 via mXylylene)

fold decrease of MDM2 binding affinity [1]: ~2 fold
Molecule: CC(=O)N[C@@H](CC(C)C)C(=O)N[C@H](C(=O)N[C@@H](Cc1ccccc1)C(=O)N[C@H]1CSCc2cc(cc(C(=O)NCCCC[C@H](NC(=O)COCCOCCNC(=O)CC[C@@H]3NC(=O)[C@@H](CCCNC(=N)N)NC(=O)[C@H](CCCNC(=N)N)NC(=O)[C@@H](CCCNC(=N)N)NC(=O)[C@H](CCCNC(=N)N)NC(=O)[C@H](Cc4ccc5ccccc5c4)NC(=O)[C@@H](Cc4ccccc4)NC3=O)C(N)=O)c2)CSC[C@@H](C(=O)N[C@@H](CCC(N)=O)C(=O)N[C@@H](CC(C)C)C(=O)N[C@H](C(=O)N[C@@H](CO)C(=O)NCCOCCOCC(=O)N[C@@H](CCCCNC(=O)c2ccc3c(c2)C(=O)OC32c3ccc4cc(O)ccc4c3Oc3c2ccc2cc(O)ccc32)C(N)=O)[C@@H](C)O)NC(=O)[C@H](Cc2c[nH]c3ccccc23)NC(=O)[C@H](Cc2ccc(O)cc2)NC(=O)[C@H](Cc2c[nH]cn2)NC1=O)[C@@H](C)O [Peptide 7] (I: Ac-LTFCHYWCQLTS[AEEA]K(X1)-NH2 / II: cyclo([2Nal]R[dR]R[dR]E[dF]); linker I:4-I:8-II:6 via X2)

IC50 [4]: 201 nM
Molecule: CC(=O)N[C@@H](CC(C)C)C(=O)N[C@H](C(=O)N[C@@H](Cc1ccccc1)C(=O)N[C@H]1CCSCC(=NOCC(=O)NCCCC[C@H](NC(=O)COCCOCCNC(=O)CC[C@@H]2NC(=O)[C@@H](CCCNC(=N)N)NC(=O)[C@H](CCCNC(=N)N)NC(=O)[C@@H](CCCNC(=N)N)NC(=O)[C@H](CCCNC(=N)N)NC(=O)[C@H](Cc3ccc4ccccc4c3)NC(=O)[C@@H](Cc3ccccc3)NC2=O)C(N)=O)CSCC[C@@H](C(=O)N[C@@H](CCC(N)=O)C(=O)N[C@@H](CC(C)C)C(=O)N[C@H](C(=O)N[C@@H](CO)C(=O)NCCOCCOCC(=O)N[C@@H](CCCCN)C(N)=O)[C@@H](C)O)NC(=O)[C@H](Cc2c[nH]c3ccccc23)NC(=O)[C@H](Cc2ccc(O)cc2)NC(=O)[C@H](Cc2c[nH]cn2)NC1=O)[C@@H](C)O [Peptide 5] (I: Ac-LTF[hCys]HYW[hCys]QLTS[AEEA]K-NH2 / II: cyclo([2Nal]R[dR]R[dR]E[dF]); linker I:4-I:8-II:6 via X3)
